Columns and labels:
Assay in all cases: relative viability (nuclei count vs DMSO), 5 days (fraction); higher = more cells survive
BI-2536 + Trametinib = compound: CC[C@@H]1C(=O)N(C)c2cnc(Nc3ccc(C(=O)NC4CCN(C)CC4)cc3OC)nc2N1C1CCCC1 [BI-2536] + CC(=O)Nc1cccc(-n2c(=O)n(C3CC3)c(=O)c3c(Nc4ccc(I)cc4F)n(C)c(=O)c(C)c32)c1 [Trametinib] (partner 0.02 µM)
Method in brief: (§1)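 Dosing by pin tool came one day after lung cancer cell lines were seeded in 1536-well plates, using either one drug or a fixed anchor-drug dose plus five library-drug doses (not always all listed) in √10 steps. After 5 days, nuclei were counted on 4× images. Relative viability is treated-well nuclei count divided by vehicle-well nuclei count, and values are medians of duplicate plates.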

[1] = compound: CC1CC(=O)N(C2=CN=C(N=C2N1C3CCCC3)NC4=C(C=C(C=C4)C(=O)NC5CCN(CC5)C)OC)C [NPK76-II-72-1] + Nc1nc2[nH]cc(CCc3ccc(C(=O)N[C@@H](CCC(=O)O)C(=O)O)cc3)c2c(=O)[nH]1 [Pemetrexed] (partner 0.2 µM)
Method in brief: as §1

BI-2536 + Pemetrexed = compound: CC[C@@H]1C(=O)N(C)c2cnc(Nc3ccc(C(=O)NC4CCN(C)CC4)cc3OC)nc2N1C1CCCC1 [BI-2536] + Nc1nc2[nH]cc(CCc3ccc(C(=O)N[C@@H](CCC(=O)O)C(=O)O)cc3)c2c(=O)[nH]1 [Pemetrexed] (partner 0.2 µM)
Method in brief: as §1

BI-2536 + Foretinib = compound: CC[C@@H]1C(=O)N(C)c2cnc(Nc3ccc(C(=O)NC4CCN(C)CC4)cc3OC)nc2N1C1CCCC1 [BI-2536] + COc1cc2c(Oc3ccc(NC(=O)C4(C(=O)Nc5ccc(F)cc5)CC4)cc3F)ccnc2cc1OCCCN1CCOCC1 [Foretinib] (partner 0.25 µM)
Method in brief: as §1

Cell Line | relative viability (BI-2536 + Trametinib; first compound 0.01 µM) | relative viability (BI-2536 + Trametinib; first compound 0.03162 µM) | relative viability (BI-2536 + Trametinib; first compound 0.1 µM) | relative viability (BI-2536 + Trametinib; first compound 0.3162 µM) | relative viability (BI-2536 + Trametinib; first compound 1 µM) | relative viability ([1]; first compound 0.01 µM) | relative viability ([1]; first compound 0.03162 µM) | relative viability ([1]; first compound 0.1 µM) | relative viability ([1]; first compound 0.3162 µM) | relative viability ([1]; first compound 1 µM) | relative viability (BI-2536 + Pemetrexed; first compound 0.01 µM) | relative viability (BI-2536 + Pemetrexed; first compound 0.03162 µM) | relative viability (BI-2536 + Pemetrexed; first compound 0.1 µM) | relative viability (BI-2536 + Pemetrexed; first compound 0.3162 µM) | relative viability (BI-2536 + Pemetrexed; first compound 1 µM) | relative viability (BI-2536 + Foretinib; first compound 0.01 µM) | relative viability (BI-2536 + Foretinib; first compound 0.03162 µM) | relative viability (BI-2536 + Foretinib; first compound 0.1 µM) | relative viability (BI-2536 + Foretinib; first compound 0.3162 µM) | relative viability (BI-2536 + Foretinib; first compound 1 µM)
NCI-H2126 | 0.622 | 0.597 | 0.517 | 0.234 | 0.228 | 0.678 | 0.809 | 0.617 | 0.672 | 0.736 | 0.747 | 0.74 | 0.369 | 0.286 | 0.217 | 1.43 | 1.28 | 1.05 | 0.309 | 0.27
LXF-289 | 0.68 | 0.654 | 0.64 | 0.12 | 0.102 | 0.885 | 0.976 | 0.89 | 0.892 | 0.855 | 0.932 | 0.812 | 0.503 | 0.0709 | 0.0711 | 1.03 | 0.826 | 0.613 | 0.0393 | 0.0552
NCI-H2009 | 0.262 | 0.246 | 0.336 | 0.131 | 0.159 | 0.971 | 1.18 | 1 | 1.02 | 1.04 | 1.07 | 1 | 0.674 | 0.223 | 0.274 | 1.18 | 0.94 | 0.547 | 0.265 | 0.279
SW 900 | 0.929 | 0.942 | 0.875 | 0.828 | 0.147 | 0.445 | 0.49 | 0.493 | 0.463 | 0.493 | 0.492 | 0.468 | 0.46 | 0.198 | 0.149 | 0.775 | 0.8 | 0.983 | 0.2 | 0.138
NCI-H2405 | 0.607 | 0.549 | 0.441 | 0.277 | 0.357 | 1.04 | 1.01 | 0.956 | 1.08 | 1.06 | 1.07 | 0.992 | 0.375 | 0.342 | 0.457 | 1.05 | 0.731 | 0.386 | 0.296 | 0.354
NCI-H1755 | 0.78 | 0.784 | 0.689 | 0.367 | 0.363 | 0.385 | 0.405 | 0.464 | 0.544 | 0.405 | 0.456 | 0.371 | 0.295 | 0.359 | 0.291 | 0.949 | 0.819 | 0.618 | 0.27 | 0.292
HCC-78 | 0.829 | 0.837 | 0.814 | 0.562 | 0.246 | 0.978 | 0.893 | 0.75 | 0.869 | 0.895 | 0.981 | 0.874 | 0.932 | 0.895 | 0.847 | 0.554 | 0.505 | 0.534 | 0.402 | 0.226
LOU-NH91 | 0.798 | 0.736 | 0.682 | 0.332 | 0.33 | 0.348 | 0.402 | 0.381 | 0.44 | 0.35 | 0.38 | 0.39 | 0.284 | 0.26 | 0.336 | 0.987 | 0.861 | 0.857 | 0.363 | 0.273
NCI-H3122 | 0.226 | 0.239 | 0.209 | 0.131 | 0.171 | 0.209 | 0.191 | 0.181 | 0.195 | 0.209 | 0.212 | 0.171 | 0.159 | 0.129 | 0.121 | 0.969 | 0.916 | 0.488 | 0.122 | 0.118
